Experimental data from PubChem BioAssay AID248 (DTP/NCI, 2004).
Where “and” joins values, the source holds several entries; their conditions need not be identical. Equal entries are not always repeated. Inconclusive results and toxic doses are left out. Rule as the data show it: active = T/C of 150% or more; inactive = T/C below 125%.

Test system: L1210 leukemia ip in BDF1 mice, survival T/C
Assay: NCI In Vivo Anticancer Drug Screen. Data for tumor model L1210 Leukemia (intraperitoneal) in B6D2F1 (BDF1) mice
Details: endpoint: mean survival time, higher = longer survival
Summary of the method: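 Transplanted-tumor mice were given test agent; controls received vehicle only. Survival readings from the two groups were divided (treated over control).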

[1] = dose: 100.0 mg/kg/injection, schedule: Q01DX001 (ip), vehicle: saline
[2] = dose: 200.0 mg/kg/injection, schedule: Q01DX001 (ip), vehicle: saline
[3] = dose: 400.0 mg/kg/injection, schedule: Q01DX001 (ip), vehicle: saline
[4] = dose: 100.0 mg/kg/injection, schedule: Q04DX003 (ip), vehicle: saline with Tween-80
[5] = dose: 200.0 mg/kg/injection, schedule: Q04DX003 (ip), vehicle: saline with Tween-80
[6] = dose: 400.0 mg/kg/injection, schedule: Q04DX003 (ip), vehicle: saline with Tween-80
[7] = dose: 100.0 mg/kg/injection, schedule: Q04DX003 (ip), vehicle: Klucel (hydroxypropylcellulose) (HPC)
[8] = dose: 200.0 mg/kg/injection, schedule: Q04DX003 (ip), vehicle: Klucel (hydroxypropylcellulose) (HPC)
[9] = dose: 50.0 mg/kg/injection, schedule: Q04DX002 (ip), vehicle: Klucel (hydroxypropylcellulose) (HPC)
[10] = dose: 100.0 mg/kg/injection, schedule: Q01DX001 (ip), vehicle: Klucel (hydroxypropylcellulose) (HPC)
[11] = dose: 100.0 mg/kg/injection, schedule: Q01DX001 (ip), vehicle: saline with Tween-80
[12] = dose: 100.0 mg/kg/injection, schedule: Q04DX002 (ip), vehicle: saline with Tween-80
[13] = dose: 200.0 mg/kg/injection, schedule: Q01DX001 (ip), vehicle: saline with Tween-80
[14] = dose: 200.0 mg/kg/injection, schedule: Q04DX002 (ip), vehicle: saline with Tween-80
[15] = dose: 400.0 mg/kg/injection, schedule: Q01DX001 (ip), vehicle: saline with Tween-80
[16] = dose: 400.0 mg/kg/injection, schedule: Q04DX002 (ip), vehicle: saline with Tween-80
[17] = dose: 200.0 mg/kg/injection, schedule: Q01DX001 (ip), vehicle: Klucel (hydroxypropylcellulose) (HPC)
[18] = dose: 400.0 mg/kg/injection, schedule: Q01DX001 (ip), vehicle: Klucel (hydroxypropylcellulose) (HPC)
[19] = dose: 50.0 mg/kg/injection, schedule: Q01DX001 (ip), vehicle: saline
[20] = dose: 12.5 mg/kg/injection, schedule: Q04DX002 (ip), vehicle: Klucel (hydroxypropylcellulose) (HPC)
[21] = dose: 25.0 mg/kg/injection, schedule: Q04DX002 (ip), vehicle: Klucel (hydroxypropylcellulose) (HPC)
[22] = dose: 400.0 mg/kg/injection, schedule: Q04DX003 (ip), vehicle: Klucel (hydroxypropylcellulose) (HPC)

Measured: T/C

O=[N+]([O-])/C=C/c1ccc(F)cc1
inactive: dose: 75.0 mg/kg/injection, schedule: Q01DX001 (ip), vehicle: alcohol 100 % of control

CN1NC(=O)C2CCCC1O2 (stereo not drawn)
inactive: [1] 95 % of control | [2] 105 % of control | [3] 94 % of control

O=[N+]([O-])c1ccccc1SNc1ccc(NSc2ccccc2[N+](=O)[O-])cc1
inactive: dose: 3.13 mg/kg/injection, schedule: Q01DX001 (ip), vehicle: saline with Tween-80 105 % of control | dose: 6.25 mg/kg/injection, schedule: Q01DX001 (ip), vehicle: saline with Tween-80 100 % of control | dose: 12.5 mg/kg/injection, schedule: Q01DX001 (ip), vehicle: saline with Tween-80 97 % of control

CC(=O)Nc1ncnc2c1c(C(N)=O)cn2C1OC(COC(C)=O)C(OC(C)=O)C1OC(C)=O (stereo not drawn)
inactive: dose: 100.0 mg/kg/injection, schedule: Q01DX001 (ip), vehicle: water 102 % of control

CCOC(=O)c1ccc(N=NNc2ccc(C(=O)OCC)cc2)cc1
inactive: dose: 10.0 mg/kg/injection, schedule: Q01DX Z (ip), vehicle: other 95 % of control | dose: 30.0 mg/kg/injection, schedule: Q01DX Z (ip), vehicle: other 87 % of control

NC(=S)N/N=C/c1ccc2c(c1)OCO2
inactive: [4] 95 % of control | [5] 103 % of control

O=C(C1=CC=CC1=P(c1ccccc1)(c1ccccc1)c1ccccc1)C(Cl)(Cl)Cl
inactive: [4] 96 % of control | [5] 95 % of control | [6] 96 % of control

Cc1ccc(NC(=O)c2ccc(C)c(NC(=O)C(F)(F)F)c2)c(C)c1
inactive: dose: 50.0 mg/kg/injection, schedule: Q04DX003 (ip), vehicle: Klucel (hydroxypropylcellulose) (HPC) 97 % of control | [7] 100 % of control | [8] 95 % of control

CN(C)CCN(C)CCN(C)CCN(C)C
inactive: dose: 100.0 mg/kg/injection, schedule: Q01DX009 (ip), vehicle: saline 95 % of control | dose: 200.0 mg/kg/injection, schedule: Q01DX009 (ip), vehicle: saline 100 % of control

O=C(O)c1cccc(C(=O)O)[n+]1[O-]
inactive: [9] 101 % of control | dose: 100.0 mg/kg/injection, schedule: Q04DX002 (ip), vehicle: Klucel (hydroxypropylcellulose) (HPC) 95 % of control

CC1(CCCOc2ccccc2C(=O)NCBr)N=C(N)N=C(N)N1c1ccccc1 (stereo not drawn)
inactive: [10] 104 % of control

CC(C)C/C=N/NC(=O)Cc1ccccc1
inactive: dose: 100.0 mg/kg/injection, schedule: Q01DX001 (ip), vehicle: other 101 % of control | dose: 200.0 mg/kg/injection, schedule: Q01DX001 (ip), vehicle: other 94 % of control | dose: 400.0 mg/kg/injection, schedule: Q01DX001 (ip), vehicle: other 101 % of control

CCCCCCCCCCCCN1CCCN(CCCCCCCCCCCC)CC1
inactive: [11] 100 % of control | [12] 97 % of control and 106 % of control | [4] 94 % of control and 90 % of control | [13] 98 % of control | [14] 97 % of control and 106 % of control | [5] 103 % of control and 87 % of control | [15] 107 % of control | [16] 101 % of control and 92 % of control | [6] 90 % of control

COc1ccc(C(=O)/C=C/c2ccccc2)cc1
inactive: [10] 102 % of control | [17] 113 % of control | [18] 100 % of control

CS(=O)(=O)OCCCc1nc2ccccc2n1S(C)(=O)=O
inactive: dose: 100.0 mg/kg/injection, schedule: Q01DX001 (ip), vehicle: carboxymethylcellulose (CMC) 110 % of control | dose: 200.0 mg/kg/injection, schedule: Q01DX001 (ip), vehicle: carboxymethylcellulose (CMC) 110 % of control | dose: 400.0 mg/kg/injection, schedule: Q01DX001 (ip), vehicle: carboxymethylcellulose (CMC) 104 % of control

Cc1[nH]ccc2cc3nc4ccccc4c3cc12
inactive: [19] 103 % of control | [1] 104 % of control | [2] 102 % of control | [3] 103 % of control

CC/C(C)=N\NC(N)=S
inactive: dose: 6.25 mg/kg/injection, schedule: Q01DX009 (ip), vehicle: Klucel (hydroxypropylcellulose) (HPC) 91 % of control | dose: 12.5 mg/kg/injection, schedule: Q01DX009 (ip), vehicle: Klucel (hydroxypropylcellulose) (HPC) 92 % of control | [20] 92 % of control | [21] 98 % of control

Nc1cc(Cl)cc(Cl)c1C(=O)O
inactive: dose: 50.0 mg/kg/injection, schedule: Q01DX009 (ip), vehicle: other 100 % of control | dose: 100.0 mg/kg/injection, schedule: Q01DX009 (ip), vehicle: other 94 % of control | dose: 100.0 mg/kg/injection, schedule: Q04DX003 (ip), vehicle: saline 90 % of control | dose: 200.0 mg/kg/injection, schedule: Q04DX003 (ip), vehicle: saline 90 % of control

CN(C)CCC(=O)c1ccc(-c2ccccc2)cc1
inactive: [7] 97 % of control | [8] 97 % of control

O=C1c2cccc3c([N+](=O)[O-])ccc(c23)C(=O)N1CCc1ccccn1
inactive: [12] 106 % of control | [14] 95 % of control | [16] 103 % of control

O=C(NCCCl)Nc1ccc(C(=O)O)c(O)c1
inactive: dose: 80.0 mg/kg/injection, schedule: Q04DX002 (ip), vehicle: Klucel (hydroxypropylcellulose) (HPC) 98 % of control | dose: 160.0 mg/kg/injection, schedule: Q04DX002 (ip), vehicle: Klucel (hydroxypropylcellulose) (HPC) 88 % of control | dose: 320.0 mg/kg/injection, schedule: Q04DX002 (ip), vehicle: Klucel (hydroxypropylcellulose) (HPC) 91 % of control

CC1CC(O)=C(c2ccccc2)P1(=O)Cc1ccccc1 (stereo not drawn)
inactive: [7] 95 % of control | [8] 95 % of control | [22] 89 % of control

CCN(CC)C(=S)c1ccc(C(=S)N(CC)CC)cc1
inactive: [7] 91 % of control | [8] 93 % of control | [22] 93 % of control

COc1cccc(N2C(=O)C=CC2=O)c1
inactive: dose: 1.56 mg/kg/injection, schedule: Q01DX009 (ip), vehicle: Klucel (hydroxypropylcellulose) (HPC) 97 % of control | dose: 3.12 mg/kg/injection, schedule: Q01DX009 (ip), vehicle: Klucel (hydroxypropylcellulose) (HPC) 97 % of control

CC1OC(n2cnc3c(=S)nc[nH]c32)C(O)C1O (stereo not drawn)
inactive: [19] 93 % of control | [1] 96 % of control | [2] 102 % of control | [3] 93 % of control

O=C1CC(c2ccccc2)C2(c3ccccc3)OC12 (stereo not drawn)
inactive: [11] 101 % of control | [13] 94 % of control | [15] 111 % of control

O=S1(=O)CC(c2ccc(Cl)cc2)Nc2ccccc21 (stereo not drawn)
inactive: [10] 87 % of control | dose: 100.0 mg/kg/injection, schedule: Q01DX009 (ip), vehicle: Klucel (hydroxypropylcellulose) (HPC) 90 % of control | [7] 103 % of control | [17] 93 % of control | dose: 200.0 mg/kg/injection, schedule: Q01DX009 (ip), vehicle: Klucel (hydroxypropylcellulose) (HPC) 90 % of control | [8] 100 % of control | [18] 93 % of control | dose: 400.0 mg/kg/injection, schedule: Q01DX009 (ip), vehicle: Klucel (hydroxypropylcellulose) (HPC) 93 % of control | [22] 92 % of control

C/C(=N\N)C(=O)c1ccccc1
inactive: [10] 103 % of control | [7] 98 % of control | [17] 93 % of control | [8] 94 % of control | [18] 101 % of control | [22] 96 % of control

O=C1NC(=O)C2C3OC(C(Cl)C3Cl)C12 (stereo not drawn)
inactive: [20] 98 % of control | dose: 25.0 mg/kg/injection, schedule: Q01DX009 (ip), vehicle: Klucel (hydroxypropylcellulose) (HPC) 97 % of control | [21] 102 % of control | dose: 50.0 mg/kg/injection, schedule: Q01DX009 (ip), vehicle: Klucel (hydroxypropylcellulose) (HPC) 107 % of control | [9] 98 % of control | dose: 75.0 mg/kg/injection, schedule: Q01DX009 (ip), vehicle: Klucel (hydroxypropylcellulose) (HPC) 96 % of control | dose: 75.0 mg/kg/injection, schedule: Q01DX009 (ip), vehicle: carboxymethylcellulose (CMC) 100 % of control
